Measured values as given in patent publication US20100099561A1, “HETEROBICYCLIC ALKYLTHIO-BRIDGED ISOXAZOLINES” (E.I. DU PONT DE NEMOURS AND COMPANY, priority 2008, published 2010).

How the values were obtained:
Assay type in all cases: in vivo
[1] = test system: barnyardgrass (Echinochloa crus-galli); assay: Test A preemergence, barnyardgrass; details: 0 to 100 scale (0 no effect, 100 complete control)
In short: (§1)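 Visual injury rating, 0 = no effect to 100 = complete control, made roughly ten days after treatment by comparison with untreated controls. Preemergence: directed soil spray onto freshly planted loam/sand. Postemergence: foliar application at one- to two-leaf stage, 2–10 cm height.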

[2] = test system: large crabgrass (Digitaria sanguinalis); assay: Test A preemergence, large crabgrass; details: 0 to 100 scale (0 no effect, 100 complete control)
In short: as §1

[3] = test system: pigweed (Amaranthus retroflexus); assay: Test A preemergence, pigweed; details: 0 to 100 scale (0 no effect, 100 complete control)
In short: as §1

corn (Zea mays) [4] = assay: Test A preemergence, corn; details: 0 to 100 scale (0 no effect, 100 complete control)
In short: as §1

[5] = test system: giant foxtail (Setaria faberi); assay: Test A postemergence, giant foxtail; details: 0 to 100 scale (0 no effect, 100 complete control)
In short: as §1

[6] = test system: pigweed (Amaranthus retroflexus); assay: Test A postemergence, pigweed; details: 0 to 100 scale (0 no effect, 100 complete control)
In short: as §1

[7] = test system: velvetleaf (Abutilon theophrasti); assay: Test A postemergence, velvetleaf; details: 0 to 100 scale (0 no effect, 100 complete control)
In short: as §1

[8] = test system: wheat (Triticum aestivum); assay: Test A postemergence, wheat; details: 0 to 100 scale (0 no effect, 100 complete control)
In short: as §1

corn (Zea mays) [9] = assay: Test A postemergence, corn; details: 0 to 100 scale (0 no effect, 100 complete control)
In short: as §1

[10] = test system: Italian ryegrass (Lolium multiflorum); assay: Test B preemergence, Italian ryegrass; details: Preemergence, scale 0 to 100
Excerpt: (§2) Seeds of plant species selected from blackgrass (Alopecurus myosuroides), downy bromegrass (Bromus tectorum), green foxtail (Setaria viridis), Italian ryegrass (Lolium multiflorum), wheat (Triticum aestivum), wild oat (Avena fatua), catchweed bedstraw (Galium aparine), bermudagrass (Cynodon dactylon), Surinam grass (Brachiaria decumbens), cocklebur (Xanthium strumarium), corn (Zea mays), large crabgrass (Digitaria sanguinalis), woolly cupgrass (Eriochloa villosa), giant foxtail (Setaria faberii), goosegrass (Eleusine indica), johnsongrass (Sorghum halepense), kochia (Kochia scoparia), lambsquarters (Chenopodium album), morningglory (Ipomoea coccinea), nightshade (eastern black nightshade, Solanum ptycanthum), yellow nutsedge (Cyperus esculentus), pigweed (Amaranthus retroflexus), ragweed (common ragweed, Ambrosia elatior), soybean (Glycine max), sunflower (common oilseed sunflower, Helianthus annuus), Russian thistle (Salsola kali), and velvetleaf (Abutilon theophrasti) were planted into a blend of loam soil and sand and treated preemergence with test compounds formulated in a non-phytotoxic solvent mixture which included a surfactant. Treated plants and controls were maintained in a greenhouse for 13 to 15 days, after which time all species were compared to controls and visually evaluated. Plant response ratings, summarized in Table B, are based on a scale of 0 to 100 where 0 is no effect and 100 is complete control. A dash (-) response means no test result.

[11] = test system: wheat (Triticum aestivum); assay: Test B preemergence, wheat; details: Preemergence, scale 0 to 100
Excerpt: as §2

[12] = test system: catchweed bedstraw (Galium aparine); assay: Test B preemergence, catchweed bedstraw; details: scale 0 to 100
Excerpt: as §2

[13] = test system: bermudagrass (Cynodon dactylon); assay: Test B preemergence, bermudagrass; details: scale 0 to 100
Excerpt: as §2

[14] = test system: Surinam grass (Brachiaria decumbens); assay: Test B preemergence, Surinam grass; details: Preemergence, scale 0 to 100
Excerpt: as §2

[15] = test system: cocklebur (Xanthium strumarium); assay: Test B preemergence, cocklebur; details: scale 0 to 100
Excerpt: as §2

[16] = test system: woolly cupgrass (Eriochloa villosa); assay: Test B preemergence, woolly cupgrass; details: scale 0 to 100
Excerpt: as §2

[17] = test system: lambsquarters (Chenopodium album); assay: Test B preemergence, lambsquarters; details: scale 0 to 100
Excerpt: as §2

[18] = test system: nightshade (eastern black nightshade, Solanum ptycanthum); assay: Test B preemergence, nightshade; details: scale 0 to 100
Excerpt: as §2

[19] = test system: umbrella sedge (Cyperus difformis); assay: Test B flooded paddy test, umbrella sedge; details: Flood, scale 0 to 100
In short: (§3)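 Paddy-water application to 2-leaf plants in pots held under 3 cm of flooding; response is a 0–100 visual control rating against controls after 13 to 15 days, and a dash marks a missing result.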

[20] = test system: barnyardgrass (Echinochloa crus-galli); assay: Test B flooded paddy test, barnyardgrass; details: Flood
In short: as §3

[21] = 250 g ai/ha, scale 0 to 100 (0 no effect, 100 complete control)

CC1(C)CC(S(=O)(=O)Cc2c(C(F)(F)F)nc3n(c2=O)CCO3)=NO1 [Compound 2, 6-[[(4,5-dihydro-5,5-dimethyl-3-isoxazolyl)sulfonyl]methyl]-2,3-dihydro-7-(trifluoromethyl)-5H-oxazolo[3,2-α]pyrimidin-5-one]
Plant response rating, Barnyardgrass ([1]; 125 g ai/ha): 80 | Plant response rating, Barnyardgrass ([1]; 500 g ai/ha): 90 | Plant response rating, Crabgrass, Large ([2]; 125 g ai/ha): 90 | Plant response rating, Crabgrass, Large ([2]; 500 g ai/ha): 100 | Plant response rating, Pigweed ([3]; 125 g ai/ha): 20 | Plant response rating, Pigweed ([3]; 500 g ai/ha): 60 | Plant response rating, Corn (corn (Zea mays) [4]; 125 g ai/ha): 0 | Plant response rating, Corn (corn (Zea mays) [4]; 500 g ai/ha): 50 | Plant response rating, Foxtail, Giant ([5]; 125 g ai/ha): 50 | Plant response rating, Foxtail, Giant ([5]; 500 g ai/ha): 80 | Plant response rating, Pigweed ([6]; 125 g ai/ha): 20 | Plant response rating, Pigweed ([6]; 500 g ai/ha): 60 | Plant response rating, Velvetleaf ([7]; 125 g ai/ha): 30 | Plant response rating, Velvetleaf ([7]; 500 g ai/ha): 60 | Plant response rating, Wheat ([8]; 125 g ai/ha): 0 | Plant response rating, Wheat ([8]; 500 g ai/ha): 60 | Plant response rating, Corn (corn (Zea mays) [9]; 125 g ai/ha): 0 | Plant response rating, Corn (corn (Zea mays) [9]; 500 g ai/ha): 50 | Plant response rating, Ryegrass, Italian ([10]; 16 g ai/ha): 0 | Plant response rating, Ryegrass, Italian ([10]; 31 g ai/ha): 0 | Plant response rating, Ryegrass, Italian ([10]; 62 g ai/ha): 0 | Plant response rating, Wheat ([11]; 16 g ai/ha): 0 | Plant response rating, Wheat ([11]; 31 g ai/ha): 0 | Plant response rating, Wheat ([11]; 62 g ai/ha): 0 | Plant response rating, Galium ([12]; 8 g ai/ha): 0 | Plant response rating, Galium ([12]; 16 g ai/ha): 100 | Plant response rating, Galium ([12]; 31 g ai/ha): 100 | Plant response rating, Galium ([12]; 62 g ai/ha): 100 | Plant response rating, Bermudagrass ([13]; 8 g ai/ha): 0 | Plant response rating, Bermudagrass ([13]; 16 g ai/ha): 0 | Plant response rating, Bermudagrass ([13]; 31 g ai/ha): 75 | Plant response rating, Bermudagrass ([13]; 62 g ai/ha): 85 | Plant response rating, Surinam Grass ([14]; 16 g ai/ha): 0 | Plant response rating, Surinam Grass ([14]; 31 g ai/ha): 80 | Plant response rating, Surinam Grass ([14]; 62 g ai/ha): 80 | Plant response rating, Cocklebur ([15]; 8 g ai/ha): 0 | Plant response rating, Cocklebur ([15]; 16 g ai/ha): 0 | Plant response rating, Cocklebur ([15]; 31 g ai/ha): 0 | Plant response rating, Cocklebur ([15]; 62 g ai/ha): 0 | Plant response rating, Cupgrass, Woolly ([16]; 8 g ai/ha): 0 | Plant response rating, Cupgrass, Woolly ([16]; 16 g ai/ha): 75 | Plant response rating, Cupgrass, Woolly ([16]; 31 g ai/ha): 75 | Plant response rating, Cupgrass, Woolly ([16]; 62 g ai/ha): 95 | Plant response rating, Lambsquarters ([17]; 8 g ai/ha): 0 | Plant response rating, Lambsquarters ([17]; 31 g ai/ha): 0 | Plant response rating, Lambsquarters ([17]; 62 g ai/ha): 0 | Plant response rating, Nightshade ([18]; 8 g ai/ha): 0 | Plant response rating, Nightshade ([18]; 16 g ai/ha): 0 | Plant response rating, Nightshade ([18]; 31 g ai/ha): 0 | Plant response rating, Nightshade ([18]; 62 g ai/ha): 0 | Plant response rating, Sedge, Umbrella ([19]; 62 g ai/ha): 0 | Plant response rating, Sedge, Umbrella ([19]; 250 g ai/ha): 0 | Plant response rating, Barnyardgrass ([20]; 62 g ai/ha, scale 0 to 100): 0 | Plant response rating, Barnyardgrass [20, 21]: 0

CC1(C)CC(S(=O)(=O)Cc2c(C(F)(F)F)nc3ccsn3c2=O)=NO1 [Compound 16]
Plant response rating, Barnyardgrass ([1]; 125 g ai/ha): 50 | Plant response rating, Barnyardgrass ([1]; 500 g ai/ha): 80 | Plant response rating, Crabgrass, Large ([2]; 125 g ai/ha): 90 | Plant response rating, Crabgrass, Large ([2]; 500 g ai/ha): 90 | Plant response rating, Pigweed ([3]; 500 g ai/ha): 100 | Plant response rating, Corn (corn (Zea mays) [4]; 125 g ai/ha): 0 | Plant response rating, Corn (corn (Zea mays) [4]; 500 g ai/ha): 0 | Plant response rating, Foxtail, Giant ([5]; 125 g ai/ha): 80 | Plant response rating, Foxtail, Giant ([5]; 500 g ai/ha): 90 | Plant response rating, Pigweed ([6]; 125 g ai/ha): 10 | Plant response rating, Pigweed ([6]; 500 g ai/ha): 50 | Plant response rating, Velvetleaf ([7]; 125 g ai/ha): 30 | Plant response rating, Velvetleaf ([7]; 500 g ai/ha): 60 | Plant response rating, Wheat ([8]; 125 g ai/ha): 0 | Plant response rating, Wheat ([8]; 500 g ai/ha): 50 | Plant response rating, Corn (corn (Zea mays) [9]; 125 g ai/ha): 0 | Plant response rating, Corn (corn (Zea mays) [9]; 500 g ai/ha): 0 | Plant response rating, Ryegrass, Italian ([10]; 16 g ai/ha): 0 | Plant response rating, Ryegrass, Italian ([10]; 31 g ai/ha): 0 | Plant response rating, Ryegrass, Italian ([10]; 62 g ai/ha): 30 | Plant response rating, Ryegrass, Italian ([10]; 125 g ai/ha): 60 | Plant response rating, Wheat ([11]; 16 g ai/ha): 0 | Plant response rating, Wheat ([11]; 31 g ai/ha): 0 | Plant response rating, Wheat ([11]; 62 g ai/ha): 0 | Plant response rating, Wheat ([11]; 125 g ai/ha): 0 | Plant response rating, Galium ([12]; 16 g ai/ha): 0 | Plant response rating, Galium ([12]; 31 g ai/ha): 0 | Plant response rating, Galium ([12]; 62 g ai/ha): 0 | Plant response rating, Galium ([12]; 125 g ai/ha): 70 | Plant response rating, Surinam Grass ([14]; 16 g ai/ha): 0 | Plant response rating, Surinam Grass ([14]; 31 g ai/ha): 55 | Plant response rating, Surinam Grass ([14]; 62 g ai/ha): 95 | Plant response rating, Surinam Grass ([14]; 125 g ai/ha): 98 | Plant response rating, Cocklebur ([15]; 16 g ai/ha): 0 | Plant response rating, Cocklebur ([15]; 31 g ai/ha): 0 | Plant response rating, Cocklebur ([15]; 62 g ai/ha): 0 | Plant response rating, Cocklebur ([15]; 125 g ai/ha): 0 | Plant response rating, Cupgrass, Woolly ([16]; 16 g ai/ha): 0 | Plant response rating, Cupgrass, Woolly ([16]; 31 g ai/ha): 25 | Plant response rating, Cupgrass, Woolly ([16]; 62 g ai/ha): 95 | Plant response rating, Cupgrass, Woolly ([16]; 125 g ai/ha): 98 | Plant response rating, Lambsquarters ([17]; 16 g ai/ha): 0 | Plant response rating, Lambsquarters ([17]; 31 g ai/ha): 0 | Plant response rating, Lambsquarters ([17]; 62 g ai/ha): 0 | Plant response rating, Lambsquarters ([17]; 125 g ai/ha): 98 | Plant response rating, Nightshade ([18]; 16 g ai/ha): 0 | Plant response rating, Nightshade ([18]; 31 g ai/ha): 0 | Plant response rating, Nightshade ([18]; 62 g ai/ha): 85 | Plant response rating, Nightshade ([18]; 125 g ai/ha): 95 | Plant response rating, Sedge, Umbrella ([19]; 62 g ai/ha): 0 | Plant response rating, Sedge, Umbrella ([19]; 250 g ai/ha): 40 | Plant response rating, Barnyardgrass ([20]; 62 g ai/ha, scale 0 to 100): 0 | Plant response rating, Barnyardgrass [20, 21]: 0
